Data reported in PMC4596572, “Ligand Discovery for the Alanine-Serine-Cysteine Transporter (ASCT2, SLC1A5) from Homology Modeling and Virtual Screening” (PLoS Computational Biology, 2015).

Legend:
[1] = target: T1, ASCT2 mediated glutamine uptake in C8161 melanoma cells (Homo sapiens, UniProt Q15758); assay: [3H]-L-glutamine uptake assay in C8161 cells; type: cell-based; details: 15 min, 37°C, n = 3
T1 construct: endogenous in cells; host or cells: C8161 human melanoma cell line
T1 sequence (Q15758 1-541): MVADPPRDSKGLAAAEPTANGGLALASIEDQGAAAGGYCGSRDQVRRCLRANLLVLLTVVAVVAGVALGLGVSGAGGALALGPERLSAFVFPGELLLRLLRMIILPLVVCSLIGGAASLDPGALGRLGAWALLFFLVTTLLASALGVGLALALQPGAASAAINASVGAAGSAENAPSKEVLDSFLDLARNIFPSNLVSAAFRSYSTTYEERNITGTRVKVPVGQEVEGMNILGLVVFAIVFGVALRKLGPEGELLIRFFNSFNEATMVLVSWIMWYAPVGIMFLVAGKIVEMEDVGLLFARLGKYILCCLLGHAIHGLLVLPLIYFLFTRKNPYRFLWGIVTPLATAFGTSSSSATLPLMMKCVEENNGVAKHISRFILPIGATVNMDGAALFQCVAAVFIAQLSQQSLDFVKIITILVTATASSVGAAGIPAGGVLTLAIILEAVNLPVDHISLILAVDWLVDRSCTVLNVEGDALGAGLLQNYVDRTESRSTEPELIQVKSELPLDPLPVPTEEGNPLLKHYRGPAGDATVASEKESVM
Protocol: We have previously shown that ASCT2 mediates glutamine uptake in C8161 human melanoma cells, and that blocking ASCT2 activity inhibits cell growth and viability (Methods). […] In the presence these compounds, [^3H]-L-glutamine uptake was decreased in a dose-dependent manner in C8161 cells, in agreement with their elicitation of current as activators and potential substrates (Fig 8A–8C).
Human melanoma cell line C8161 culture was performed as previously described. Media used was DMEM/F12 medium (Life Technologies) containing 5% (v/v) fetal bovine serum (FBS), penicillin-streptomycin solution (Sigma-Aldrich). Cells were maintained at 37°C in a fully humidified atmosphere containing 5% CO2. Inhibitors (chloroalanine, AOC and γ-FBP) were resuspended in H2O, with control cells treated with the appropriate concentrations of vehicle alone.
C8161 cells (1 × 10^5/well) were incubated with [^3H]-L-glutamine (400 nM; PerkinElmer) in MEM media (Life Technologies) for 15 min at 37°C in the presence or absence of each inhibitor. Cells were collected and transferred to filter paper using a 96-well plate harvester (Wallac PerkinElmer), dried, exposed to scintillation fluid and counts measured using a liquid scintillation counter (PerkinElmer).

[2] = test system: ASCT2 protein levels in C8161 cells; assay: Western blotting of ASCT2 protein levels; type: cell-based, human; details: 5 mM, 48 hours
Protocol: To ensure these inhibitory effects were not due to changes in ASCT2 protein levels, we examined ASCT2 protein levels by Western blotting 48 hours after incubation with chloroalanine (5 mM), AOC (5 mM) or γ-FBP (5 mM) (Fig 8J). […] For example, γ-FBP is an inhibitor that deprives the cancer cells from nutrients and the activator Chloroalanine can potentially be further developed as a cytotoxic ligand.
Cells (5 × 10^5 per well) were seeded in 24 well plates, allowed to adhere overnight, and then incubated in the presence of 5 mM chloroalanine, AOC or γ-FBP for 48 hours. Cells were detached using Tryple and lysed in lysis buffer (50 μL; 20 mM Tris-HCl, 150 mM NaCl, 1% Triton X-100, 0.5% Na deoxycholate, 0.1% SDS) with protease inhibitor Cocktail III (Bioprocessing Biochemical, California). Protein was measured using micro-BCA method (Pierce) and loaded onto a 4–12% gel (Life Technologies), electrophoresed, and transferred to PVDF membrane. The membrane was blocked with 2.5% (w/v) BSA in PBS-Tween20, and incubated with primary (ASCT2, Cell Signaling; GAPDH, Abcam) and secondary antibodies. Secondary HRP-labeled antibodies (Millipore) were detected using chemiluminescence reagents (Pierce) on a Kodak imager (Kodak).

For `NC1(C(=O)O)COC1`, which IC50 [1] is on record?
Its IC50 is 10 to 15 mM.

What about the ASCT2 protein levels [2] of the same compound?
The ASCT2 protein levels was “no change”.

Which results are given for `O=C(O)C1CC(Cc2ccccc2F)CN1` (stereo not drawn) [γ-FBP]?
IC50 [1]: 10 to 15 mM; ASCT2 protein levels [2]: no change

Which IC50 [1] does the source give for `NC(CCl)C(=O)O` (stereo not drawn) [Chloroalanine] here?
Its IC50 is 9.2 mM.

And the ASCT2 protein levels [2]?
Its ASCT2 protein levels is “reduced the levels of ASCT2 protein”.
